Measurements as given in EP0987275B1, “Molecules that home to a selected organ or tissue in vivo” (LA JOLLA CANCER RESEARCH FOUNDATION, priority 1995, dated 2008).
“And” between values parts separate entries of the source, which are not always exact repeats. Identical values can stand only once. Where no end group is shown, it is not given here.

Assays:
[1] = test system: Human 435 breast carcinoma cells; assay: Competition of RGD phage tumor homing by coinjected free peptide; type: in vivo, nude mice; conditions: coinjection of 500 µg free peptide
Procedure: (§1) Human 435 breast carcinoma cells were inoculated into the mammary fat pad of nude mice. When the tumors attained a diameter of about 1 cm, phage expressing a specific RGD-containing peptide were administered to the tumor bearing mouse. Similar results to those discussed below also were obtained with nude mice bearing tumors formed by implantation of human melanoma C8161 cells or by implantation of mouse B16 melanoma cells.
1 x 10^9 phage expressing the RGD-containing peptide, […] (SEQ ID NO: 57; see, Koivunen et al., supra, 1995) or control (insertless) phage were injected intravenously (iv) into the mice and allowed to circulate for 4 min. The mice then were snap frozen while under anesthesia, and various organs, including tumor, brain and kidney, were removed and the phage present in the organs was quantitated (see Pasqualini and Ruoslahti, supra, 1996).

[2] = test system: Human 435 breast carcinoma cells; assay: In vivo targeting of phage expressing an RGD peptide to a breast tumor; design: species or system nude mice; conditions: for RGD phage as compared to unselected control phage accumulated in the tumor: human breast carcinoma tumors
Procedure: as §1
1 x 10^9 phage expressing the RGD-containing peptide, CDCRGDCFC (SEQ ID NO: 57; see, Koivunen et al., supra, 1995) or control (insertless) phage were injected intravenously (iv) into the mice and allowed to circulate for 4 min. The mice then were snap frozen while under anesthesia, and various organs, including tumor, brain and kidney, were removed and the phage present in the organs was quantitated (see Pasqualini and Ruoslahti, supra, 1996).

[3] = test system: brain; assay: Specificity of brain homing of individually amplified phage (TU in brain vs kidney); type: in vivo, mice; conditions: individual phage, same input titer
Procedure: To determine the specificity of brain homing of the individual motifs identified, phage displaying the predominant motifs were amplified individually, diluted to the same input titer and administered to mice. Following administration, brain and kidney were removed and the number of TU of phage in each organ was determined. […] Specifically, the ratio of selective homing (brain:kidney) was about 8 for CNSRLHLRC (SEQ ID NO: 1) and for CLSSRLDAC (SEQ ID NO: 3), 4 for CENWWGDVC (SEQ ID NO: 2) and 9 for […] (SEQ ID NO: 16).

[4] = test system: brain; assay: In vivo panning of phage peptide display libraries, brain as the selected organ (kidney control); design: species or system mice; conditions: phage recovered from brain; for (% PHAGE): % of the 73 clones sequenced; for # PHAGE DISPLAYING SAME A.A. SEQUENCE: second and third rounds of in vivo panning, 73 cloned phage sequenced
Procedure: Phage display libraries were constructed using the fuse 5 vector as described by Koivunen et al. (supra, 1995; see, also, Koivunen et al. Meth. Enzymol. 245:346-369 (1994b), which is incorporated herein by reference). Six libraries encoding peptides designated CX5C (SEQ ID NO: 36), CX6C (SEQ ID NO: 37), CX7C (SEQ ID NO: 38), CX9 (SEQ ID NO: 39), X2CX14CX2 (SEQ ID NO: 40) and X2CX18 (SEQ ID NO: 41) were prepared, where "C" indicates cysteine and "XN" indicates the given number of individually selected amino acids. These libraries can display cyclic peptides when at least two cysteine residues are present in the peptide.
Oligonucleotides were constructed such that "C" was encoded by the codon TGT and "XN" was encoded by NNK, where "N" is equal molar mixtures of A, C, G and T, and where "K" is equal molar mixtures of G and T. Thus, the peptide represented by CX5C (SEQ ID NO: 36) can be represented by an oligonucleotide having the sequence TGT(NNK)5TGT (SEQ ID NO: 42). Oligonucleotides were made double stranded by 3 cycles of PCR amplification, purified and ligated to the nucleic acid encoding the gene III protein in the fuse 5 vector such that, upon expression, the peptide is present as a fusion protein at the N-terminus of the gene III protein.
The vectors were transfected by electroporation into MC1061 cells. Bacteria were cultured for 24 hr in the presence of 20 µg/ml tetracycline, then phage were collected from the supernatant by precipitation twice using polyethylene glycol. Each library contained about 5 x 10^9 to 5 x 10^14 transducing units (TU; individual recombinant phage).
(§2) A mixture of phage libraries containing 1 x 10^14 TU was diluted in 200 µl DMEM and injected into the tail vein of anesthetized BALB\c mice (2 month old females; Jackson Laboratories; Bar Harbor ME); Avertin™ (0.015 ml/g) was used as anesthetic (see Pasqualini and Ruoslahti, supra, 1996). After 1-4 minutes, mice were snap frozen in liquid nitrogen. To recover the phage, carcasses were partially thawed at room temperature for 1 hr, organs were collected and weighed, then were ground in 1 ml DMEM-PI (DMEM containing protease inhibitors (PI); phenylmethylsulfonyl fluoride (PMSF; 1 mM), aprotinin (20 µg/ml), leupeptin (1 µg/ml)).
(§3) Organ samples were washed 3 times with ice cold DMEM-PI containing 1% bovine serum albumin (BSA), then directly incubated with 1 ml K91-kan bacteria for 1 hr. Ten ml NZY medium containing […] tetracycline (NZY/tet) was added to the bacterial culture, the mixture was incubated in a 37°C shaker for 1 hr, then 200 µl aliquots were plated in agar plates containing 40 µg/ml tetracycline (tet/agar).
(§4) Individual colonies containing phage recovered from brain or kidney were grown for 16 hr in 5 ml NZY/tet. The bacterial cultures obtained from the individual colonies were pooled and the phage were purified and re-injected into mice as described above for a second round of in vivo panning. A third round of panning also was performed. Phage DNA was purified from individual bacterial colonies obtained from the second and the third round of in vivo panning and the DNA sequences encoding the peptides expressed by selected phage were determined (see Koivunen et al., supra, 1994b).
Three rounds of in vivo panning in mice were performed. Kidney was used as a control organ. Mice were injected with two different mixtures of phage libraries. The first mixture contained libraries encoding CX9 (SEQ ID NO: 39), CX5C (SEQ ID NO: 36), CX6C (SEQ ID NO: 37) and CX7C (SEQ ID NO: 38) peptides (CX5-7/CX9 mixture; SEQ ID NOS: 36-39). The second mixture contained libraries encoding X2CX14CX2 (SEQ ID NO: 40) and X2CX18 (SEQ ID NO: 41) peptides (X2CX18/X2CX14CX2 mixture; SEQ ID NOS: 40 and 41).
The phage library mixtures were administered to mice via tail vein injection. Phage input was […] of the CX5-7/CX9 (SEQ ID NOS: 36-39) mixture or 1 x 10^14 TU of the X2CX18/X2CX14CX2 (SEQ ID NOS: 40 and 41) mixture. […]

[5] = test system: kidney; assay: Selective kidney homing of individual phage (kidney vs brain); type: in vivo, mice
Procedure: (§5) The amino acid sequences were determined for the inserts in 48 cloned phage that homed to kidney. The peptides expressed by these phage were represented by two predominant sequences, CLPVASC (SEQ ID NO: 21; 46% of the clones sequenced) and CGAREMC (SEQ ID NO: 22; 17% of the clones; see Table 2). In addition, the peptide CKGRSSAC (SEQ ID NO: 23) appeared three times and three other peptides were present twice each.

[6] = test system: kidney; assay: In vivo panning of phage peptide display libraries, kidney as the selected organ (brain control); design: species or system mice; conditions: phage recovered from kidney; for (% PHAGE): % of the 48 clones sequenced; for # PHAGE DISPLAYING SAME A.A. SEQUENCE: 48 cloned phage sequenced
Procedure: as §2, §3, §4
The same methodology used to isolate phage expressing brain homing peptides was used to isolate phage expressing peptides that home to kidney. In these experiments, brain was used as the control organ. A mixture of the CX5C (SEQ ID NO: 36) and the CX6C (SEQ ID NO: 37) libraries was administered as described above. Homing of phage to the kidney was obtained and an approximately 3x to 7x enrichment of phage homing to kidney was observed following a second round of in vivo panning.
as §5

[7] = test system: Human 435 breast carcinoma cells; assay: In vivo panning in mice bearing a human breast carcinoma tumor; design: species or system nude mice; conditions: phage recovered from human breast cancer after third round, 14 cloned phage; for # clones: CX3CX3CX3C library
Procedure: Human 435 breast carcinoma cells (Price et al., Cancer Res. 50:717-721 (1990)) were inoculated into the mammary fat pad of nude mice. When the tumors attained a diameter of about 1 cm, either a phage targeting experiment was performed, in which phage expressing a specific peptide were administered to the tumor bearing mouse, or in vivo panning was performed.
The breast tumor bearing mice were injected with 1 x 10^9 phage expressing a library of CX3CX3CX3C (SEQ ID NO: 47) peptides, where X3 indicates three groups of independently selected, random amino acids. The phage were allowed to circulate for 4 min, then the mice were anesthetized, snap frozen in liquid nitrogen while under anesthesia, and the tumor was removed. Phage were isolated from the tumor and subjected to two additional rounds of in vivo panning.
Following the third round of panning, phage were quantitated and the peptide sequences expressed by 14 different cloned phage were determined. The 14 cloned phage expressed 4 different peptides (Table 3).

[8] = test system: B16B15b mouse melanoma cells; assay: In vivo panning in mice bearing an implanted mouse melanoma tumor; design: species or system nude mice; conditions: phage recovered from B16B15b tumors; 89 cloned phage sequenced
Procedure: Mice bearing a melanoma were produced by implantation of B16B15b mouse melanoma cells, which produce highly vascularized tumors. B16B15b mouse melanoma cells were injected subcutaneously into the mammary fat pad of nude mice (2 months old) and tumors were allowed to grow until the diameter was about 1 cm. In vivo panning was performed as disclosed above. Approximately 1 x 10^12 transducing units of phage expressing the CX5C (SEQ ID NO: 36), CX6C (SEQ ID NO: 37) or […] library were injected, iv, and allowed to circulate for 4 min. Mice then were snap frozen in liquid nitrogen while under anesthesia, tumor tissue and brain (control organ) were removed, and phage were isolated as described above. Three rounds of in vivo panning were performed.
The amino acid sequences were determined for the inserts in 89 cloned phage recovered from the B16B15b tumors. The peptides expressed by these phage were represented by two predominant sequences, CLSGSLSC (SEQ ID NO: 55; 52% of the clones sequenced) and WGTGLC (SEQ ID NO: 52; 25% of the clones; see Table 4).

[9] = test system: melanoma; assay: Immunohistochemical staining (anti-M13) for phage localization in melanoma bearing mice; type: in vivo; conditions: 1 x 10^9 pfu phage iv, 4 min
Procedure: Localization of the phage expressing a tumor homing peptide in the mouse organs was examined by immunohistochemical staining of the tumor and various other tissues. 1 x 10^9 pfu of a control (insertless) phage or a phage expressing the tumor homing peptide, CLSGSLSC ([…]), were injected, iv, into tumor bearing mice and allowed to circulate for 4 min. The mouse then was perfused with DMEM and various organs, including the tumor were removed and fixed in Bouin's solution. Histologic sections were prepared and stained using anti-M13 (phage) antibodies (see Pasqualini and Ruoslahti, supra, 1996).

[10] = test system: brain; assay: Homing of 125I-peptide/RBC complex to brain, with peptide competition; type: in vivo, mouse; conditions: 10 mM unlabeled peptide
Procedure: The synthetic cyclic CLSSRLDAC (SEQ ID NO: 3) peptide (1 mg) was labeled with iodine-125 using the Bolton and Hunter reagent (Amersham; Arlington Heights IL). Labeled peptide was purified by reverse phase HPLC on Sep-Pak™ cartridges (Waters, Millipore Corp.; Milford PA) and the ^125I-peptide (200 µg) was coupled to 1 ml glutaraldehyde-stabilized sheep RBC (Sigma Chemical Co.; St. Louis MO) according to the manufacturer's instructions.
Fifty µl ^125I-peptide/RBC (200,000 cpm), alone or with 10 mM of unlabeled CLSSRLDAC (SEQ ID NO: 3), which is a brain homing peptide, or CVRLNSLAC (SEQ ID NO: 43), which has no brain homing activity, was injected into the tail vein. After 2 min, each mouse was perfused through the heart with 50 ml DMEM and the brain and kidney were removed and assayed for radioactivity.

## ACDCRGDCFCG
[1]
  reduction of the amount of RGD phage in the tumor by coinjected free peptide: about tenfold

## CDCRGDCFC
[2]; 1 x 10^9 phage iv, 4 min
  phage detected in the breast tumor as compared to brain and kidney: 2-3 times
[2]; breast tumors
  immunohistochemical staining for the phage in the tumor: accumulation of the RGD phage in the blood vessels within the tumor
[2]
  RGD phage as compared to unselected control phage accumulated in the tumor: 80 fold
[2]; listed as RGD phage
  RGD phage as compared to unselected control phage accumulated in the tumor: twenty- to eighty-fold
[2]; mouse, in vivo
  staining for the phage in brain or kidney (control organs): no staining

## CENWWGDVC (displayed on phage)
[3]
  ratio of selective homing (brain:kidney): ~4
[4]
  (% PHAGE): 19% and 19.2%
  # PHAGE DISPLAYING SAME A.A. SEQUENCE: 14

## CGAREMC (displayed on phage)
[5]
  ratio of selective kidney:brain homing: 3
[6]
  (% PHAGE): 17% and 16.7%
  # PHAGE DISPLAYING SAME A.A. SEQUENCE: 8

## CGEACGGQCALPC [breast tumor homing peptide]
[7]
  % of total phage sequenced: 28.6%
  # clones: 4

## CGLMCQGACFDVC [peptide from phage recovered from human breast cancer]
[7]
  % of total phage sequenced: 7.1%
  # clones: 1

## CGRECPRLCQSSC [breast tumor homing peptide]
[7]
  % of total phage sequenced: 42.9%

## CKGRSSAC (cysteine pairing not given here; also: displayed on phage)
[5]
  ratio of selective kidney:brain homing: 2
[6]
  (% PHAGE): 6.2%

## CLPVASC (displayed on phage)
[5]
  ratio of selective kidney:brain homing: 7
[6]
  (% PHAGE): 46% and 45.8%
  # PHAGE DISPLAYING SAME A.A. SEQUENCE: 22

## CLSGSLSC (not fully specified; cysteine pairing not given here; also: displayed on phage)
[8]
  # clones: 46
  % of total phage: 52%
[9]
  immunostaining in the liver sinusoids and in spleen: immunostaining was detected
  immunostaining in the melanoma: Strong immunostaining
  staining in skin or in kidney samples: Essentially no staining

## CNGRCVSGCAGRC [breast tumor homing peptide]
[7]
  % of total phage sequenced: 21.4%
  # clones: 3

## CNSRLHLRC (displayed on phage)
[3]
  ratio of selective homing (brain:kidney): about 8
[4]
  (% PHAGE): 21.9%
  # PHAGE DISPLAYING SAME A.A. SEQUENCE: 16

## CVRLNSLAC
[10]
  effect of coadministered unlabeled peptide on brain homing of the CLSSRLDAC/RBC complex: no effect
  effect of coadministered unlabeled peptide on complex localizing to the kidney: no effect

## WRCVLREGPAGGCAWFNRHRL (displayed on phage)
[3]
  ratio of selective homing (brain:kidney): ~9
[4]
  (% PHAGE): 13.7%
  # PHAGE DISPLAYING SAME A.A. SEQUENCE: 10
